The numbers were not newly measured in patent publication US20260191834A1, “PHARMACEUTICAL COMBINATION FOR THE TREATMENT OF MULTIPLE MYELOMA, MONOCLONAL GAMMOPATHY OF UNDETERMINED SIGNIFICANCE, AND SMOLDERING MULTIPLE MYELOMA” (priority 2022, published 2026), which cites them from elsewhere.

In the case of `CC[C@H]1OC(=O)[C@H](C)[C@@H](O[C@H]2C[C@@](C)(OC)[C@@H](O)[C@H](C)O2)[C@H](C)[C@@H](O[C@@H]2O[C@H](C)C[C@H](N(C)C)[C@H]2O)[C@](C)(OC)C[C@@H](C)C(=O)[C@H](C)[C@@H](O)[C@]1(C)O` [clarithromycin, Clarithromycin], the “efficacy for treating multiple myeloma” value (as an add-on to chemotherapies) was “reported and confirmed”. In addition, the “efficacy for Multiple Myeloma” value (given alone as a single treatment) is “no efficacy”.
